Source: patent US4347319A, “Microbiological epoxidation process” (priority 1980, dated 1982)

Tests used:
[1] = tested on: Methylococcus capsulatus (Texas, ATCC 19,069); experiment: Oxidation by cell suspensions of methane-grown cells; format: cell-based; conditions: growth substrate Methane; n-alkane to secondary alcohol
Method: (§1) The pH of the nutrient medium was adjusted to 7.0 by the addition of acid or base and 50 ml samples of the nutrient medium were charged into a plurality of 300 ml shaker flasks. The shaker flasks were inoculated with an inoculating loop of cells from an agar plate containing homogeneous colonies of the microorganisms on the plate (the purity of the isolates was confirmed by microscopic examination. The isolates had been maintained on agar plates under an atmosphere of methane and air having a 1:1 v/v gas ratio which had been transferred evey two weeks. The gaseous phase of the inoculated flasks was then replaced with a gas mixture comprised of methane and air having a ratio of 1:1 on a v/v basis. The inoculated flasks were sealed air tight and were incubated on a rotary shaker of orbital radius 2.5 cm at 250 rpm and at 30° C. for two days until turbidity in the medium had developed.
(§2) The cells were harvested by centrifugation at 10,000×g. at 4° C. for 30 minutes. The cell pellet was washed twice with a 0.15 M phosphate buffer at a pH of 7.0 (containing 0.002 M MgCl2). The washed cells were then suspended in a 0.15 M phosphate buffer at pH 7.0.
(§3) A 0.5 ml sample of each washed cell suspension (2 mg cells) was put into 10 ml vials at 4° C. which were sealed with a rubber cap. The gaseous phase of the vials was removed with vacuum and then was replaced with a gas mixture of the oxidative substrate (e.g., methane) and oxygen at a 1:1 v/v ratio. The vials were then incubated at 30 ° C. on a rotary shaker at 300 rpm. Samples of product (3 μl) were withdrawn periodically with a microsyringe and the products were analyzed by gas chromatography (ionization flame detector column).
(§4) The conditions for preparing the cell suspensions or the cell-free particulate fractions from methane-grown methylotroph microorganisms is the same as described above.

[2] = tested on: Methylobacter capsulatus (Y, NRRL-B-11,201); experiment: as above; format: cell-based; conditions: growth substrate Methane; n-alkane to secondary alcohol
Method: as §1, §2, §3, §4

[3] = tested on: Methylosinus trichosporium OB3b (NRRL B-11,196); experiment: as above; format: cell-based; conditions: growth substrate Methane; n-alkane to secondary alcohol
Method: as §1, §2, §3, §4

[4] = tested on: Methylomonas methanica (CRL 21 PM7) NRRL B-11,206; experiment: Oxidation by washed cell suspensions of methane-grown cells; format: cell-based
Procedure, shortened: (§5)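 Cells grown 2 days at 30 °C under methane/air 1:1 (pH 7.0 medium), washed and resuspended in 0.15 M phosphate pH 7.0. Suspension (2 mg cells) incubated at 30 °C, 300 rpm under substrate/O2 1:1 (liquid substrates 10 μl); products measured periodically by GC with flame ionization detection.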

[5] = target: T1, cell-free fractions of Methylococcus capsulatus (CRL M1, NRRL B-11,219) (Methylococcus capsulatus, UniProt G1UBD1+Q603F1+Q607G3); experiment: Epoxidation and hydroxylation activities in cell-free fractions; format: biochemical
T1 sequence (G1UBD1 33-414): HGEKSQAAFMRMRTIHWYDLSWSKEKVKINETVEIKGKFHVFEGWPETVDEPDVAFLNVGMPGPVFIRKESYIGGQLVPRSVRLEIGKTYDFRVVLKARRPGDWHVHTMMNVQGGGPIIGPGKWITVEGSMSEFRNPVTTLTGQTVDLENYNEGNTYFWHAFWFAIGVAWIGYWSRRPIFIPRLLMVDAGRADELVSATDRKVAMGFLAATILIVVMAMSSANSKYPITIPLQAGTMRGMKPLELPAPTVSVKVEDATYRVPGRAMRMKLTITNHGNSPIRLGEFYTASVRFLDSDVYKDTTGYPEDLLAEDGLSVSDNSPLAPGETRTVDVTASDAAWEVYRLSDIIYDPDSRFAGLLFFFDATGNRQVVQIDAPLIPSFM
T1 sequence (Q607G3 1-247): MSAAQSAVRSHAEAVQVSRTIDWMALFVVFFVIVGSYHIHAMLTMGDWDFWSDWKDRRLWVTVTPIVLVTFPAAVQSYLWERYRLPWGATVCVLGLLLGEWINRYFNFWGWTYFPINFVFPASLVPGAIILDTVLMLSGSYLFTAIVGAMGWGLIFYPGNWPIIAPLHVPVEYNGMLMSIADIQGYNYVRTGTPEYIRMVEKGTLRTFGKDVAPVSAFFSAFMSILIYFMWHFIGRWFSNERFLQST
T1 sequence (Q603F1 1-260): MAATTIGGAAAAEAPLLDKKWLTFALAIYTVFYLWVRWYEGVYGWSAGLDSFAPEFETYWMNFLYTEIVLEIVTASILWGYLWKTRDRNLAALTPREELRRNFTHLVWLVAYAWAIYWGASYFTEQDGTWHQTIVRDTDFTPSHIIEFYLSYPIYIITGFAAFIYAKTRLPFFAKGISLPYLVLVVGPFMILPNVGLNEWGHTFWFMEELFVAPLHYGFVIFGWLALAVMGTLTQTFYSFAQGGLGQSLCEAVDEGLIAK
Method: Cells of methane-grown Methylococcus capsulatus (CRL M1, NRRL B-11,219) were obtained by the method of Example 1. […] However, when the cells were disrupted by passing twice through a French pressure cell (1000 Kg. pressure), both activities were found in the crude extract after 10,000×g. centrifugation. All of the activity in the crude extract was collected as a particulate fraction by further centrifugation of the crude extract at 40,000×g. for 90 min. at 4° C.
^a The cells were disrupted by French Press as described above. NADH
[…] was added into the reaction mixture where indicated.
The amount of protein in the particulate fraction and the 40,000 ×
g. supernatant fraction used was 1 mg. and 2.5 mg., respectively. Each
assay contained 0.5 ml. reaction mixture.

[6] = tested on: Methylomonas rosaceus (CRL M7P) NRRL B-11,213; experiment: Oxidation by washed cell suspensions of methane-grown cells; format: cell-based; conditions: 30° C., methane to methanol, alkene to 1,2-epoxide
Procedure, shortened: as §5

[7] = tested on: Methylomonas rubrum (CRL M6P) NRRL B-11,210; experiment: as above; format: cell-based; conditions: methane-grown washed cells, 30° C.; methane to methanol, alkene to 1,2-epoxide
Procedure, shortened: as §5

[8] = particulate fraction (10,000 × g.-40,000 × g.), 1 mg. protein
[9] = supernatant fraction of 40,000 × g., 2.5 mg. protein

SMILES	Conversion Rate [1]	Conversion Rate [2]	Conversion Rate [3]	Conversion Rate to Ketone ([4]; methane-grown cells, butane to 2-butanone)	Oxidation Rate [5, 8]	Oxidation Rate ([5]; particulate fraction + NADH)	Oxidation Rate ([5]; supernatant fraction + NADH)	Oxidation Rate [5, 9]	Oxidative Conversion Rates [6]	Oxidative Conversion Rates [7]	Oxidative Conversion Rates ([4]; methane-grown washed cells, 30° C., methane to methanol, alkene to 1,2-epoxide)
CCCC [Butane]	1.0 μmoles/hr/^5 mg. protein	0.09 μmoles/hr/^5 mg. protein	1.5 μmoles/hr/^5 mg. protein	1.5 μmoles/hr/mg Protein							
C [Methane]					500 nmoles/30 min/assay	650 nmoles/30 min/assay	0 nmoles/30 min/assay	0 nmoles/30 min/assay	1.4 μmole/hr/mg protein	0.5 μmole/hr/mg protein	
CCC [Propane]	1.1 μmoles/hr/^5 mg. protein	0.20 μmoles/hr/^5 mg. protein	2.5 μmoles/hr/^5 mg. protein								
C=CC [Propylene]					750 nmoles/30 min/assay	900 nmoles/30 min/assay	0 nmoles/30 min/assay	0 nmoles/30 min/assay	2.0 μmole/hr/mg protein	1.0 μmole/hr/mg protein	2.4 μmole/hr/mg protein
